Measurements from patent US20250129135A1, “Multi-Agonist and Use Thereof” (priority 2021, published 2025).
Starred links: 1 amine or outer side, 2 acyl side, 3 side chain; linkers in the order of their positions; H or OH if unused. Non-standard residues stand in square brackets, D forms with d. Residues, ends and D or L forms follow the SMILES beside them. Groups on a side chain read outwards from the residue. *: point of attachment. C20 diacid = O=C(O)CCCCCCCCCCCCCCCCCCC(=O)*; αMePhe(2-F) = C[C@](N)(Cc1ccccc1F)C(=O)O; γGlu = O=C(O)[C@H](CCC(=O)[*:2])N[*:1]; αMeL = CC(C)C[C@](C)(N)C(=O)O; AEEA = NCCOCCOCC(=O)O; Ac3c = NC1(C(=O)O)CC1; Aib = CC(C)(N)C(=O)O

Tests used:
Human GCG R = target: T1, Human GCG R (Homo sapiens, UniProt P47871); experiment: cAMP (HTRF) activity in HEK-293 cells stably overexpressing human GCG receptor; type: cell-based; conditions: EC50 of human GCG / EC50 of compound
T1 construct: expressed in transfected cells; host or cells: HEK-293
How it was run: (§1)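 Cells resuspended in HBSS are incubated with compound for 60 min at room temperature, then with HTRF cAMP detection reagent for a further 60 min. Concentration-response fits give agonist EC50 values in nM.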

RIN-m5F cells = type: cell-based, rat; conditions: for Rel. A (Relative Activity) on RIN-m5F: relative to GLP-1(7-37)
How it was run: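 cAMP production measured in RIN-m5F cells resuspended in HBSS; compounds incubated 60 min at room temperature, then detection reagent added for a further 60 min before read-out.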

[1] = system: human primary liver cells; type: cell-based; conditions: for Rel. A (Relative Activity) on human primary liver cells: relative to GCG
How it was run: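 Human primary hepatocytes, thawed at 37° C and resuspended in HBSS, exposed to compound for 60 min at room temperature. Detection reagent then added for 60 min before cAMP readout.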

Human GIP R = target: T2, Human GIP R (Homo sapiens, UniProt P48546); experiment: cAMP (HTRF) activity in CHO cells stably overexpressing GIP receptor; type: cell-based; conditions: for Human GIP R Rel. A (Relative Activity): EC50 of human GIP / EC50 of compound
T2 construct: expressed in transfected cells; host or cells: CHO
T2 sequence (P48546 22-466): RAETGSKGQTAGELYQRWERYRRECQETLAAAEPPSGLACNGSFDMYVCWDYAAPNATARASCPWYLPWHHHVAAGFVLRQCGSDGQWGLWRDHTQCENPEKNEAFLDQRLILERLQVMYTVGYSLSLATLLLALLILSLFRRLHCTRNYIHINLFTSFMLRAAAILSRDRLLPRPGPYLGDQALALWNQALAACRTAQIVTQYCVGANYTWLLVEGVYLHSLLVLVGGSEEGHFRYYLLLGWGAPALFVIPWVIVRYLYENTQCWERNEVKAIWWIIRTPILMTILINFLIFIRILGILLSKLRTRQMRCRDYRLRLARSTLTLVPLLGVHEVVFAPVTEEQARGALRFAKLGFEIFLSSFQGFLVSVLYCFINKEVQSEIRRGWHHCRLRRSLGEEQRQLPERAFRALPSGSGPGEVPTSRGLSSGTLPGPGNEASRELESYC
How it was run: as §1

3T3-L1 adipocytes = conditions: for Rel. A (Relative Activity) on 3T3-L1 adipocyte: relative to GIP
How it was run: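 Mouse 3T3-L1 preadipocytes were differentiated with IBMX, dexamethasone and insulin for 5 days, then insulin plus 10 uM rosiglitazone for 3 days, then 10% FBS medium for 2–3 days. Mature adipocytes received 10-point, 3-fold compound dilutions for 60 min at room temperature. cAMP was read by kit detection reagent after a further 60 min, with concentration-effect curves fitted.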

Human GLP-1R = Human GLP-1R (Homo sapiens, UniProt P43220); experiment: cAMP (HTRF) activity in HEK-293 cells stably overexpressing human GLP-1 receptor; type: cell-based; parameters: expressed in transfected cells; host or cells: HEK-293; conditions: for Human GLP-1R Rel. A (Relative Activity): EC50 of human GLP-1 (7-37) / EC50 of compound
How it was run: as §1

[2] = stable transfected cell cAMP activity, at least 3 independent tests

Sequence of Human GLP-1R (P43220 24-463): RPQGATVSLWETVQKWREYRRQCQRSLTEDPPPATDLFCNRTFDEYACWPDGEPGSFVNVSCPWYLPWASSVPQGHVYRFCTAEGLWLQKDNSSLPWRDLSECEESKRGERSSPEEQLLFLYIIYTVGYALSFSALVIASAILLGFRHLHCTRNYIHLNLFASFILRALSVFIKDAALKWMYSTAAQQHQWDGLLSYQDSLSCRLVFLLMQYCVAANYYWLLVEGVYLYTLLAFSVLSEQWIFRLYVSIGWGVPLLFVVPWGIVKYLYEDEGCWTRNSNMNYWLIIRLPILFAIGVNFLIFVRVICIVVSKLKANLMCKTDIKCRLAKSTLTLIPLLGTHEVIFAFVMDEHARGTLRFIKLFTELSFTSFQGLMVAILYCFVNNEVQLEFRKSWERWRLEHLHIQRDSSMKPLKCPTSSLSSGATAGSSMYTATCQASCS
T1 sequence (P47871 26-477): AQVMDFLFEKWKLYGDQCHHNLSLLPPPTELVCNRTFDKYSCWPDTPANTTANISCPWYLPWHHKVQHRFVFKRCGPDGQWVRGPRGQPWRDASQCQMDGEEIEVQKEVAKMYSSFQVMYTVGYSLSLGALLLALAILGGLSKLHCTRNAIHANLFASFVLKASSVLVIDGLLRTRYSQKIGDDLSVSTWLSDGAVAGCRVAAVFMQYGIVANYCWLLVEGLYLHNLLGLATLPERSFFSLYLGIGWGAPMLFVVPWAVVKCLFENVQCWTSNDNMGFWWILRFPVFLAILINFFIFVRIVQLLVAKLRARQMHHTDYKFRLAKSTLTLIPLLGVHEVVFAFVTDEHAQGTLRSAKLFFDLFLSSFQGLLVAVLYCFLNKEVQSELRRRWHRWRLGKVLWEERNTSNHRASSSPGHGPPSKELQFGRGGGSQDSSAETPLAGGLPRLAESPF

SMILES | Human GCG R Rel. A (Relative Activity) (Human GCG R) [%] | EC50 (RIN-m5F cells) [nM] | Rel. A (Relative Activity) on RIN-m5F (RIN-m5F cells) [%] | EC50 [1] [nM] | Rel. A (Relative Activity) on human primary liver cells [1] [%] | Human GIP R Rel. A (Relative Activity) (Human GIP R) [%] | EC50 (Human GIP R; [2]) [nM] | EC50 (3T3-L1 adipocytes) [nM] | Rel. A (Relative Activity) on 3T3-L1 adipocyte (3T3-L1 adipocytes) [%] | Human GLP-1R Rel. A (Relative Activity) (Human GLP-1R) [%] | EC50 (Human GLP-1R; [2]) [nM]
CC[C@H](C)[C@H](NC(=O)[C@H](Cc1ccccc1)NC(=O)[C@H](C)NC(=O)C(C)(C)NC(=O)[C@H](CCC(N)=O)NC(=O)[C@H](C)NC(=O)[C@H](CCCCNC(=O)COCCOCCNC(=O)COCCOCCNC(=O)CC[C@H](NC(=O)CCCCCCCCCCCCCCCCCCC(=O)O)C(=O)O)NC(=O)[C@H](CCCCN)NC(=O)[C@H](CC(=O)O)NC(=O)[C@H](CC(C)C)NC(=O)[C@](C)(CC(C)C)NC(=O)[C@@H](NC(=O)[C@H](CO)NC(=O)[C@H](Cc1ccc(O)cc1)NC(=O)[C@H](CC(=O)O)NC(=O)[C@H](CO)NC(=O)[C@@H](NC(=O)[C@](C)(Cc1ccccc1F)NC(=O)[C@@H](NC(=O)CNC(=O)[C@H](CCC(N)=O)NC(=O)C(C)(C)NC(=O)[C@@H](N)Cc1ccc(O)cc1)[C@@H](C)O)[C@@H](C)O)[C@@H](C)CC)C(=O)N[C@@H](CCC(=O)O)C(=O)N[C@@H](Cc1ccccc1)C(=O)N[C@@H](CC(C)C)C(=O)N[C@@H](CC(C)C)C(=O)N[C@@H](CCC(=O)O)C(=O)N[C@H](C(=O)N[C@@H](CCCNC(=N)N)C(=O)N1CCC[C@H]1C(=O)N[C@@H](CO)C(=O)N[C@@H](CO)C(=O)NC(C)(C)C(=O)N[C@@H](Cc1c[nH]cn1)C(=O)N1CCC[C@H]1C(=O)N1CCC[C@H]1C(=O)N1CCC[C@H]1C(=O)N[C@@H](CO)C(N)=O)[C@@H](C)O [Compound 39] (H-Y[Aib]QGT[αMePhe(2-F)]TSDYSI[αMeL]LDKK([AEEA-AEEA-γGlu-C20 diacid])AQ[Aib]AFIEFLLETRPSS[Aib]HPPPS-NH2) | 37.25 | 0.843 | 122.42 | 2.03 | 191.77 | 1206.67 | 0.015 | 2.05 | 185.83 | 56.41 | 
CC[C@H](C)[C@H](NC(=O)[C@H](Cc1ccccc1)NC(=O)[C@H](C)NC(=O)C(C)(C)NC(=O)[C@H](CCC(N)=O)NC(=O)[C@H](C)NC(=O)[C@H](CCCCNC(=O)COCCOCCNC(=O)COCCOCCNC(=O)CC[C@H](NC(=O)CCCCCCCCCCCCCCCCCCC(=O)O)C(=O)O)NC(=O)[C@H](CCCCN)NC(=O)[C@H](CC(=O)O)NC(=O)[C@H](CC(C)C)NC(=O)[C@H](CC(C)C)NC(=O)[C@@H](NC(=O)[C@H](CO)NC(=O)[C@H](Cc1ccc(O)cc1)NC(=O)[C@H](CC(=O)O)NC(=O)[C@H](CO)NC(=O)[C@@H](NC(=O)[C@](C)(Cc1ccccc1F)NC(=O)[C@@H](NC(=O)CNC(=O)[C@H](CCC(N)=O)NC(=O)C(C)(C)NC(=O)[C@@H](N)Cc1ccc(O)cc1)[C@@H](C)O)[C@@H](C)O)[C@@H](C)CC)C(=O)N[C@@H](CCC(=O)O)C(=O)N[C@@H](Cc1ccccc1)C(=O)N[C@@H](CC(C)C)C(=O)N[C@@H](CC(C)C)C(=O)N[C@@H](CCC(=O)O)C(=O)N[C@@H](CO)C(=O)N[C@@H](Cc1c[nH]cn1)C(=O)N1CCC[C@H]1C(=O)N[C@@H](CO)C(=O)N[C@@H](CO)C(=O)NC(C)(C)C(=O)N[C@@H](Cc1c[nH]cn1)C(=O)N1CCC[C@H]1C(=O)N1CCC[C@H]1C(=O)NC1(C(=O)N[C@@H](CO)C(N)=O)CC1 [Compound 41] (H-Y[Aib]QGT[αMePhe(2-F)]TSDYSILLDKK([AEEA-AEEA-γGlu-C20 diacid])AQ[Aib]AFIEFLLESHPSS[Aib]HPP[Ac3c]S-NH2; N-terminus assumed) | 70.37 | 0.136 | 758.82 | 0.907 | 429.00 | 247.95 |  | 1.51 | 252.12 | 366.67 | 0.012
